Target: T1, Androgen receptor (Rattus norvegicus, UniProt P15207)
T1 sequence (P15207 whole entry): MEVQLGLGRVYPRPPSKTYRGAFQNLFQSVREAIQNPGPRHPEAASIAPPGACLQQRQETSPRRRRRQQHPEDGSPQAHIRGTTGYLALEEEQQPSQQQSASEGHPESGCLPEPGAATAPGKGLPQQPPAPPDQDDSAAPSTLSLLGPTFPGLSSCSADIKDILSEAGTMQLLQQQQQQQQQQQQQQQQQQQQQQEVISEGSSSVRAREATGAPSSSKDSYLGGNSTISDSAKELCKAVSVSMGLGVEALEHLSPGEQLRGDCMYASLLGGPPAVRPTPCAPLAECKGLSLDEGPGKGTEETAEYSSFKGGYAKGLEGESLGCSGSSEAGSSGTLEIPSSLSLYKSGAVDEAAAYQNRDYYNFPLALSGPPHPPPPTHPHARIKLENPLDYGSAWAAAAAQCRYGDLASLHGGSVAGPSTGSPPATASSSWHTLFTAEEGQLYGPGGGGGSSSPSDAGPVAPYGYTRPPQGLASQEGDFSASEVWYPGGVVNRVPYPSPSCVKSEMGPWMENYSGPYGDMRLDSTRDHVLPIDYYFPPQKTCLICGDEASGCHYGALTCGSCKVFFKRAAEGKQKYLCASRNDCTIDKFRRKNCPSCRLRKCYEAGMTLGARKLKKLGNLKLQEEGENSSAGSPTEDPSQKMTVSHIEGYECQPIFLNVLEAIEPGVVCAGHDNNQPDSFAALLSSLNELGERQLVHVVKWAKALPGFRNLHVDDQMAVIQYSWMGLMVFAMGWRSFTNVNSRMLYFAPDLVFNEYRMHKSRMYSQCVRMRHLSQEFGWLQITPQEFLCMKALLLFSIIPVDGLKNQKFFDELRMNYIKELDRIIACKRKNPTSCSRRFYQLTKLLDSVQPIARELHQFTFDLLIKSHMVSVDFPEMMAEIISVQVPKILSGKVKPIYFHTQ
Assay: The assay was performed as specified by the manufacturer (Invitrogen, Madison, Wis.). Briefly, 1 ul of 10 mM compound was added to 500 ul of AR screening buffer in a 1.5 ml eppendorf tube to make a 2x10E-5M stock. 10-fold serial dilutions of the test compounds were prepared ranging in concentration from 10E-5M to 10E-12M. Each dilution was added in triplicate to a black 384-microtiter plate. The test compounds will be diluted 2-fold in the final reaction. 2x AR-Fluormone complex was prepared with 2 nM Flourmone AL Green and 30 nM AR. 25 ul of 2x complex was aliquoted to each reaction well, such that the final reaction volume was 50 ul per well.

With C[C@@H]1OC(=O)N(c2ccc(C#N)c(C(F)(F)F)c2)[C@H]1[C@@H](O)C(F)(F)F as the compound, how does the IC50 read?
Its IC50 is 72 nM.

For Cc1c(N2C(=O)OC[C@@H]2[C@@H](O)C(F)(F)F)ccc(C#N)c1C(F)(F)F, which IC50 is on record?
Its IC50 is greater than 1000 nM.

C[C@@H]1OC(=O)N(c2ccc(C#N)c(C(F)(F)F)c2)[C@H]1[C@H](O)C(F)(F)F was tested. Which IC50 did it give?
Its IC50 is 4 nM.
